Assay results as given in US7265096B2 (XenoPort, Inc., priority 2002, dated 2007).

Tests used:
[1] = test system: human ENT1, ENT2, CNT1 and CNT3; conditions: literature (Mackey et al.; Fang et al.); cited from earlier work
CNT2 = target: T1, CNT2 (Homo sapiens, UniProt O43868); conditions: literature (Mackey et al.; Fang et al.); cited from earlier work
T1 sequence (O43868 1-658): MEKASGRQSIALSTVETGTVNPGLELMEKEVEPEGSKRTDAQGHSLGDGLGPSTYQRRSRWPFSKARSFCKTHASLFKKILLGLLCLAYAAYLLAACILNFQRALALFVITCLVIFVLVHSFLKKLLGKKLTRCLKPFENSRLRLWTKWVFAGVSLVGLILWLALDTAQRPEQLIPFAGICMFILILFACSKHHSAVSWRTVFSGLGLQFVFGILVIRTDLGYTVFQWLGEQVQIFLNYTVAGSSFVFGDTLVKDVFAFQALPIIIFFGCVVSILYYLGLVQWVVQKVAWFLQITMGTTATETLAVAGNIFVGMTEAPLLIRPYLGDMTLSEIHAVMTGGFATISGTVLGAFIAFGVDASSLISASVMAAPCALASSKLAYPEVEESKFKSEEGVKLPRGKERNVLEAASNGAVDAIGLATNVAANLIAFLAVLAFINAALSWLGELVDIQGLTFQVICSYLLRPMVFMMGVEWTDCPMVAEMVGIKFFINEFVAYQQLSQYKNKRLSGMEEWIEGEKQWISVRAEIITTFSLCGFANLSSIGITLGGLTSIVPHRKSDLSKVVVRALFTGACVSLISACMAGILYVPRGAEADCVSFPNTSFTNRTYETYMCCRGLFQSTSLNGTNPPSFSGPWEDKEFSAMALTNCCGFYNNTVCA

[2] = Pharmacokinetics and intestinal exposure to gemcitabine after oral dosing in mice; format: in vivo; conditions: male, mouse, blood, po, 20 mg-eq. gemcitabine/kg; read-out: Fpo (oral bioavailability)
Experimental: Blood samples (0.5 mL) were obtained by cardiac puncture from 4 animals at each time point (1, 5, 10, 15, 30, 45 minutes and 1, 2, 4, 6 and 24 hr post-dosing). Samples were immediately transferred to tubes containing 10 μL of tetrahydrouridine (50 μg/mL in 50% methanol/water) to prevent further deamination and aliquots (100 μL) were quenched with a solution of 1% w/w formic acid in acetonitrile (300 μL). Quenched blood samples were stored at −80° C. until analyzed. Following collection of blood samples, the small intestine of each animal was removed, rinsed with saline, scraped to remove the mucosal layer, and the mucosal tissue was transferred to a pre-weighed vial containing 10 μL of tetrahydrouridine (50 μg/mL in 50% methanol/water). Sample vials were snap frozen in dry ice/acetone and stored at −80° C. until analyzed. Mucosal tissue samples were diluted 1:10 in water and 100 μL of the resulting sample was added to 400 μL of methanol.

[3] = intravenous infusion for up to 12 hours; cited from earlier work

Nc1ccn([C@@H]2O[C@H](CO)[C@@H](O)C2(F)F)c(=O)n1 [gemcitabine, 2′,2′-difluoro-2′-deoxycytidine]
Transport by human ENT1, ENT2, CNT1 and CNT3 [1]: transported by human ENT1, ENT2, CNT1 and CNT3
Transport by CNT2 (CNT2): not the purine-selective concentrative transporter CNT2
bioavailability [2]: 20%
Dose reported to be tolerated in patients [3]: 10 mg/m^2/min
